Some test systems named below: A549; IGROV-1; NCI-H460; LXFL 529; TK-10; SNB-75; SK-OV-3; NCI-H522; SK-MEL-5; SW-620; CAKI-1; KM12; OVCAR-4; A498; LOX IMVI; BT-549; NCI/ADR-RES; MDA-MB-435; NCI-H226; HCT-116.
Common to all, as to test: NCI-60 cell line screen, 48 h

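Where inhibition never reached the appropriate level, the endpoint shown equals the highest concentration tested. Otherwise, values were interpolated linearly from a five-concentration, 48-hour dose response in 96-well plates. GI50 = concentration required for 50% inhibition of growth.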 Active and inactive are the calls of the source. Rule as the data show it: active = GI50 up to about 1.1 µM and inactive = higher. Some results are limits rather than exact numbers.

For `COc1ccc(/C=C2\Cc3ccccc3C2=O)cc1OC`, the GI50 in the test on A549 is > 100 µM (inactive); in the test with IGROV-1, > 100 µM (inactive); with NCI-H460 it was > 100 µM (inactive); in the test on LXFL 529 it was 75 µM (inactive); in the test with TK-10, > 100 µM (inactive); in the test on SNB-75, > 10 µM (inactive). Further, the GI50 with SK-OV-3 is > 100 µM (inactive); with NCI-H522 it was 70.6 µM (inactive); in the test with SK-MEL-5, 63.4 µM (inactive); in the test on SW-620, > 100 µM (inactive); in the test with CAKI-1 it was > 100 µM (inactive); with KM12, > 100 µM (inactive). In addition, the GI50 in the test with OVCAR-4 and with A498 was > 100 µM (inactive) each time.

As to `CC(C)(C)CC(N)=O`, the GI50 in the test on LOX IMVI, in the test with A549, in the test with IGROV-1, in the test on NCI-H460, in the test with BT-549 and with NCI/ADR-RES was > 100 µM (inactive) in each case. Moreover, the GI50 in the test with MDA-MB-435, in the test with NCI-H226, in the test on TK-10, in the test with SNB-75, in the test on SK-OV-3 and in the test with NCI-H522 was > 100 µM (inactive) in each case. The GI50 with SK-MEL-5, with SW-620, in the test on CAKI-1, in the test with KM12, in the test on OVCAR-4 and in the test with A498 was > 100 µM (inactive) each time. The GI50 in the test on HCT-116 was > 100 µM (inactive).

For `CC(C)=CCC/C(C)=C/CC/C(C)=C/CCC1(C)CCC([C@H](C)C(=O)O)OO1.CC1=C(CC/C(C)=C/CCC2(C)CCC([C@H](C)C(=O)O)OO2)C(C)(C)CCC1` (some centres undefined), the GI50 in the test with LOX IMVI, in the test on A549, in the test with NCI-H460, in the test with LXFL 529, in the test with NCI-H226 and in the test on TK-10 was > 100 µM (inactive) in each case. The GI50 with SNB-75, in the test with NCI-H522, with SW-620, with CAKI-1, in the test with KM12 and in the test on OVCAR-4 was > 100 µM (inactive) in each case. Also, in the test on HCT-116, the GI50 is > 100 µM (inactive).

Turning to `COc1ccccc1-n1nnc2c(N)nc(N)nc21`, the GI50 in the test with LOX IMVI, in the test with A549, with IGROV-1, with NCI-H460, in the test with BT-549 and in the test on NCI/ADR-RES was > 100 µM (inactive) throughout. Also, the GI50 in the test on MDA-MB-435, in the test with NCI-H226, in the test on TK-10, with SNB-75, in the test with SK-OV-3 and in the test on NCI-H522 was > 100 µM (inactive) each time. The GI50 with SK-MEL-5, in the test with SW-620, with CAKI-1, in the test on KM12, with OVCAR-4 and in the test on A498 was > 100 µM (inactive) each time. Moreover, in the test with HCT-116, the GI50 was > 100 µM (inactive).

Take `CCC1=CCN(c2cc(C)ccn2)OC1c1ccccc1` (centres undefined): the GI50 was 30.9 µM (inactive) with LOX IMVI; 40.1 µM (inactive) with A549; 67.8 µM (inactive) with IGROV-1; 38.4 µM (inactive) in the test on NCI-H460; 27 µM (inactive) with LXFL 529; > 100 µM (inactive) in the test with NCI-H226. Besides, the GI50 is 45.6 µM (inactive) in the test with SNB-75; 71.3 µM (inactive) in the test with SK-OV-3; 18.5 µM (inactive) in the test on NCI-H522; 32.2 µM (inactive) with SW-620; 66.1 µM (inactive) in the test on CAKI-1; 30.9 µM (inactive) in the test with KM12. Besides, the values for the GI50 in the test on OVCAR-4 and in the test with HCT-116 were 59.8 µM (inactive) and 30.8 µM (inactive), respectively.

In the case of `CCNC(=O)OCc1c(COC(=O)NCC)c(-c2ccc(Cl)c(Cl)c2)n2c1CCC2`, the GI50 in the test on A549 is 18.5 µM (inactive); with IGROV-1 it was 9.31 µM (inactive); with NCI-H460, 4.61 µM (inactive); in the test with LXFL 529 it was 15.3 µM (inactive); in the test with NCI-H226 it was 1.75 µM (inactive); with TK-10, 10.9 µM (inactive). The GI50 with SNB-75 was 11.1 µM (inactive); in the test with NCI-H522 it was 6.58 µM (inactive); in the test on SK-MEL-5, 14.9 µM (inactive); in the test on SW-620, 13.8 µM (inactive); in the test on CAKI-1, 3.01 µM (inactive); with KM12, 25.9 µM (inactive). Besides, the GI50 with OVCAR-4 was 15.2 µM (inactive); in the test with HCT-116, 9.4 µM (inactive).

`C=CCCOC(=O)CO[N+](=O)[O-]`: the GI50 in the test on LOX IMVI, in the test on A549, with IGROV-1, in the test on NCI-H460, in the test on LXFL 529 and in the test with NCI-H226 was > 100 µM (inactive) throughout. Further, the GI50 in the test on TK-10, with SNB-75, with SK-OV-3, in the test with NCI-H522, in the test on SW-620 and in the test on CAKI-1 was > 100 µM (inactive) throughout. The GI50 with KM12, in the test on OVCAR-4 and in the test with HCT-116 was > 100 µM (inactive) in each case.

Regarding `Oc1ccccc1/C=N/c1ccc(Oc2ccc(Cl)cc2)c(Cl)c1`, the GI50 in the test on LOX IMVI was 15.7 µM (inactive); in the test with A549, 20.6 µM (inactive); in the test on IGROV-1 it was 22.7 µM (inactive); in the test with NCI-H460, 18.6 µM (inactive); in the test with BT-549 it was 15.8 µM (inactive); in the test on NCI/ADR-RES, 19.3 µM (inactive). Further, the GI50 in the test with MDA-MB-435 is 28.3 µM (inactive); with NCI-H226, 25.2 µM (inactive); in the test with TK-10 it was 39.5 µM (inactive); in the test with SNB-75, 21.1 µM (inactive); with SK-OV-3 it was 29.8 µM (inactive); in the test on NCI-H522, 14.4 µM (inactive). Besides, the GI50 in the test with SK-MEL-5 was 20.8 µM (inactive); with SW-620, 28.9 µM (inactive); in the test with CAKI-1, 23.2 µM (inactive); in the test with KM12, 23.8 µM (inactive); with OVCAR-4, 22.4 µM (inactive); in the test on A498, 11.5 µM (inactive). The GI50 in the test on HCT-116 was 16.7 µM (inactive).

Take `Nc1cccc(S(=O)(=O)Nc2nnc(S(N)(=O)=O)s2)c1`: the GI50 in the test with LOX IMVI, in the test on A549, in the test on IGROV-1, in the test on NCI-H460, in the test with BT-549 and in the test on NCI/ADR-RES was > 100 µM (inactive) in each case. For the same molecule, the GI50 in the test on MDA-MB-435, in the test on NCI-H226, in the test with TK-10, in the test with SNB-75, in the test with SK-OV-3 and in the test on NCI-H522 was > 100 µM (inactive) throughout. Also, the GI50 with SK-MEL-5, in the test on SW-620, in the test with CAKI-1, in the test with KM12, with OVCAR-4 and in the test on A498 was > 100 µM (inactive) throughout. Also, the GI50 with HCT-116 was > 100 µM (inactive).

As for `C=CC1[C@H]2COC(C)(C)O[C@@H]2CC(=O)C1(C)C` (some centres undefined), the GI50 in the test on LOX IMVI, with A549, in the test with NCI-H460, in the test with LXFL 529, in the test with NCI-H226 and in the test with TK-10 was > 100 µM (inactive) each time. In addition, the GI50 with SNB-75, in the test on NCI-H522, with SW-620, in the test on CAKI-1, in the test with KM12 and in the test on OVCAR-4 was > 100 µM (inactive) throughout. In addition, in the test with HCT-116, the GI50 is > 100 µM (inactive).

For `CC1(C)CCC[C@@]2(C)C1CC[C@H]1CC(O)C3(C)CCC12C3` (some centres undefined), the GI50 was 15.4 µM (inactive) in the test on LOX IMVI; 18.7 µM (inactive) in the test with A549; 22.2 µM (inactive) in the test on IGROV-1; 18.5 µM (inactive) with NCI-H460; 17.2 µM (inactive) in the test with LXFL 529; 20 µM (inactive) in the test with NCI-H226. Besides, the GI50 in the test with TK-10 is 14.4 µM (inactive); with SNB-75, 22.9 µM (inactive); with SK-OV-3, 18.3 µM (inactive); in the test on NCI-H522, 16.6 µM (inactive); in the test on SK-MEL-5, 17.5 µM (inactive); with SW-620, 17.1 µM (inactive). The GI50 with CAKI-1 is 16.6 µM (inactive); in the test with KM12, 17.5 µM (inactive); with OVCAR-4 it was 18.1 µM (inactive); with HCT-116, 17.3 µM (inactive).

As to `C[C@H]1COC2=C1C(=O)C(=O)c1c2ccc2c1CCCC2(C)C` [CRYPTOTANSHINONE], the GI50 is 2.52 µM (inactive) with LOX IMVI; 1.05 µM (active) in the test on A549; 2.71 µM (inactive) in the test on IGROV-1; 1.63 µM (inactive) in the test with NCI-H460; 2.11 µM (inactive) in the test with BT-549; 2.79 µM (inactive) in the test on NCI/ADR-RES. Besides, the GI50 in the test on MDA-MB-435 was 1.42 µM (inactive); in the test with NCI-H226, 3.24 µM (inactive); in the test on TK-10 it was 8.18 µM (inactive); in the test on SNB-75, 0.881 µM (active); with SK-OV-3, 11.6 µM (inactive); in the test with NCI-H522, 2.01 µM (inactive). Also, the GI50 is 0.382 µM (active) in the test with SK-MEL-5; 1.73 µM (inactive) with SW-620; 8.22 µM (inactive) in the test on CAKI-1; 2.19 µM (inactive) in the test with KM12; 12.2 µM (inactive) in the test on OVCAR-4; 18.3 µM (inactive) in the test on A498. Further, the GI50 in the test with HCT-116 was 2.96 µM (inactive).

The record behind these values is ChEMBL document CHEMBL1201862, “PubChem BioAssay data set” (2004).
